Assays:
Assay type in all cases: in vivo, rat
[1] = system: sensorimotor cortex infarct; assay: Lesion size / stroke volume after photothrombotic focal ischemia; settings: 4 weeks treatment after focal ischemia
Protocol: All procedures were carried out in accordance with NIH Guidelines with the approval of Children's Hospital Animal Care and Use Committee. Unilateral in-farcts were induced in the sensorimotor cortex of adult Sprague-Dawley rats (275-300 g; Charles River Laboratories, Wilmington, Mass.) using the photothrombotic model of focal ischemia (Markgraf et al., 1993). Briefly, rats were anesthetized with a combination of ketamine (75 mg/kg) and Domitor (medetomidine; 0.5 mg/kg) and a 15 mm skin incision was made at the midline rostral to the posterior suture. A craniotomy was performed over the sensorimotor cortex using a hand-held drill to open a window that spanned medio-laterally between the sagittal sinus and temporal ridge, and rostro-caudally between Bregma +2.5 mm and Bregma −3.5 mm. […]
Sections through the telencephalon were cut at 10 μm, mounted on slides, and stained with Crystal Violet to determine the extent of the lesions. […] The area of the injured and uninjured hemisphere of each section was determined using NIH Image-J software. Lesion area was determined by subtracting the area of tissue remaining in the injured hemisphere from that in the uninjured hemisphere in sections spaced 250 μm apart spanning the full rostrocaudal extent of the lesion. […]

[2] = system: corticospinal tract (CST) axons; assay: BDA anterograde tracing of CST fibers from the undamaged hemisphere into the denervated side of the spinal cord after stroke
Protocol: All procedures were carried out in accordance with NIH Guidelines with the approval of Children's Hospital Animal Care and Use Committee. Unilateral in-farcts were induced in the sensorimotor cortex of adult Sprague-Dawley rats (275-300 g; Charles River Laboratories, Wilmington, Mass.) using the photothrombotic model of focal ischemia (Markgraf et al., 1993). Briefly, rats were anesthetized with a combination of ketamine (75 mg/kg) and Domitor (medetomidine; 0.5 mg/kg) and a 15 mm skin incision was made at the midline rostral to the posterior suture. A craniotomy was performed over the sensorimotor cortex using a hand-held drill to open a window that spanned medio-laterally between the sagittal sinus and temporal ridge, and rostro-caudally between Bregma +2.5 mm and Bregma −3.5 mm. The photosensitive dye Rose Bengal was injected into the femoral vein, and a fiber-optic cable connected to a xenon light source was centered over the craniotomy, focusing light directly on the exposed region of the brain for 30 minutes. A green filter fitted over the bulb restricted illumination to ˜525 nm, a wavelength that excites Rose Bengal and causes it to release free radical species. The subsequent damage to endothelial cells in exposed portions of the cortical vasculature causes platelet aggregation, resulting in severe focal ischemia. […] Control animals were generated using the same surgical procedure but without photo-activation of Rose Bengal. Animals with strokes were randomly assigned to receive a continuous infusion of either saline (0.9%, Baxter Scientific; n=12), inosine (50 mM in saline, Sigma-Aldrich Co., St. Louis, Mo.; n=12), NEP1-40 (500 μM in 2.5% DMSO/97.5% saline; n=12), or inosine +NEP1-40 (n=12) into the cisterna magna using osmotic minipumps (0.25 μl/h, Alzet model 2004, Durect Corpora-tion, Palo Alto, Calif.). In addition to these, a separate set of animals with the same 4 groups (n=12 in each) was created for a long-term behavioral study. Because CSF drug concentrations presumably require several hours to achieve steady-state levels when delivered via slow-releasing osmotic pumps, all animals received a 25 μl intraventricular bolus of the appropriate agent prior to pump placement. Pumps were tucked between the shoulder blades and infusion needles were secured onto the cranium with a silicon-based glue. The incision was closed with silk sutures and cleaned with betadine and ethanol pads. For 72 hours following surgery, animals received twice-daily, subcu-taneous injections of Buprenex (buprenorphine; Reckitt Benkiser Pharmaceuticals Inc., Richmond, Va.) for pain management.
In groups treated for four weeks after stroke, animals were re-anesthetized, the infusion needle and pump were removed, and a craniotomy was performed over the uninjured SMA. The anterograde tracer bioti-nylated dextran amine (BDA: Molecular Probes: 10% wt/vol in sterile saline) was injected stereotaxically at depths of 0.5, 1.0, and 2.0 mm below the cortical surface at 18 standardized points distributed over the sensorimotor cortex (70 nl per injection; Nano-ject, Drummond Scientific, Broomall, Pa.). Two weeks later, animals were anesthetized and perfused transcardially with 0.9% saline followed by 4% paraformaldehyde. The brain and spinal cord were dissected and post-fixed overnight in 4% paraformaldehyde, followed by 10% and 30% sucrose solutions over the next few days. Tissue was em-bedded in OCT Tissue Tek Medium (Sakura Finetek USA Inc., CA) and frozen on dry ice. Forty micron free-floating sections were cut in the coronal plane on a Frigo-Jung 8500 cryostat. Free-floating spinal cord sections were used to detect crossing fibers using avidin-biotin complex conjugated to horseradish peroxidase (Vectastain ABC Kit; Vector Laboratories), followed by Vector SG (Vector Laboratories) as a chromagen. Sections were mounted on pre-coated slides and lightly counterstained with eosin to distinguish grey and white matter boundaries. […]

[3] = system: corticospinal tract (CST) axons; assay: BDA tracing of CST axons in sham-operated animals (no brain injury); settings: sham surgery, 4 weeks treatment
Protocol: In groups treated for four weeks after stroke, animals were re-anesthetized, the infusion needle and pump were removed, and a craniotomy was performed over the uninjured SMA. The anterograde tracer bioti-nylated dextran amine (BDA: Molecular Probes: 10% wt/vol in sterile saline) was injected stereotaxically at depths of 0.5, 1.0, and 2.0 mm below the cortical surface at 18 standardized points distributed over the sensorimotor cortex (70 nl per injection; Nano-ject, Drummond Scientific, Broomall, Pa.). Two weeks later, animals were anesthetized and perfused transcardially with 0.9% saline followed by 4% paraformaldehyde. The brain and spinal cord were dissected and post-fixed overnight in 4% paraformaldehyde, followed by 10% and 30% sucrose solutions over the next few days. Tissue was em-bedded in OCT Tissue Tek Medium (Sakura Finetek USA Inc., CA) and frozen on dry ice. […] Six to ten sections spanning a distance of 1.2 mm were examined and quantified for (a) BDA-labeled axon profiles ≧40 μm in length within the dorsal funiculus on the denervated side of the spinal cord (ipsilateral to the BDA injection and contralateral to the injury); (b) BDA+axons≧40 μm in length in the gray matter of the denervated side of the spinal cord, and (c) BDA+axons≧200 μm in length on the denervated side. […] Average numbers of axons were calculated and converted to axons per mm of spinal cord. […]

[4] = 4 weeks treatment after stroke, vs saline

OC[C@H]1O[C@@H](n2cnc3c(O)ncnc32)[C@H](O)[C@@H]1O [inosine]
lesion size (mean±S.E.M) [1]: 81.1±8.6 pixels | number of synaptic bouton-like structures ([2]; 0.25 mm^2 box spanning Laminae VI and VII, vs saline): tripled | increase in number of labeled fibers ≧40 μm in gray matter on the denervated side [2, 4]: 2.5 fold | increase in number of lengthy axons (>200 μm) in gray matter on the denervated side [2, 4]: 3.5 fold | number of BDA-labeled CST fibers, inosine- vs saline-treated ([2]; CST axons labeled two weeks after stroke): No significant differences | increase in number of CST fibers re-crossing the midline to enter the denervated dorsal funiculus, relative to controls ([2]; inosine 50 mM infusion 4 weeks after stroke): three-fold | number of CST fibers in the denervated dorsal funiculus relative to NEP1-40 alone ([2]; inosine combined with NEP1-40): did not increase | number of axons >40 μm in the cervical gray matter relative to NEP1-40 alone ([2]; inosine combined with NEP1-40): strongly increased | number of axons >200 μm in the cervical gray matter relative to NEP1-40 alone ([2]; inosine combined with NEP1-40): strongly increased | labeled CST axons in spinal grey matter ipsilateral to the labeled hemisphere [3]: 77.5±9.0 axons/mm

— US8912144B2, “Method for treating stroke via administration of NEP1-40 and inosine” (Children's Medical Center Corporation, priority 2003, dated 2014)
